Source: PubChem BioAssay AID192 (DTP/NCI, 2004)
Values joined by “and” are separate entries in the source; they are usually repeats but may differ in a detail not shown here. Identical values can stand only once. Inconclusive results and toxic doses are left out. Rule for the calls: active = survival T/C of 150% or more; inactive = T/C below 125% in these data.

Tested on: BDF1 mice, B16 melanoma ip, median survival T/C
Test: NCI In Vivo Anticancer Drug Screen. Data for tumor model B16 Melanoma (intraperitoneal) in B6D2F1 (BDF1) mice
Details: endpoint: median survival time, higher = longer survival
How it was run: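 In this screen, activity was judged from survival or tumor size in treated versus vehicle-treated tumor-bearing mice, reported as T/C.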

[1] = dose: 12.5 mg/kg/injection, schedule: Q01DX009 (ip), vehicle: Klucel (hydroxypropylcellulose) (HPC)
[2] = dose: 50.0 mg/kg/injection, schedule: Q01DX009 (ip), vehicle: Klucel (hydroxypropylcellulose) (HPC)
[3] = dose: 100.0 mg/kg/injection, schedule: Q01DX009 (ip), vehicle: Klucel (hydroxypropylcellulose) (HPC)
[4] = dose: 200.0 mg/kg/injection, schedule: Q01DX009 (ip), vehicle: Klucel (hydroxypropylcellulose) (HPC)
[5] = dose: 25.0 mg/kg/injection, schedule: Q01DX009 (ip), vehicle: saline
[6] = dose: 50.0 mg/kg/injection, schedule: Q01DX009 (ip), vehicle: saline
[7] = dose: 100.0 mg/kg/injection, schedule: Q01DX009 (ip), vehicle: saline
[8] = dose: 6.25 mg/kg/injection, schedule: Q01DX009 (ip), vehicle: saline with Tween-80
[9] = dose: 12.5 mg/kg/injection, schedule: Q01DX009 (ip), vehicle: saline with Tween-80
[10] = dose: 25.0 mg/kg/injection, schedule: Q01DX009 (ip), vehicle: saline with Tween-80
[11] = dose: 50.0 mg/kg/injection, schedule: Q01DX009 (ip), vehicle: saline with Tween-80
[12] = dose: 100.0 mg/kg/injection, schedule: Q01DX009 (ip), vehicle: saline with Tween-80

Measured: T/C

C[C@]1(O)CC[C@H]2[C@@H]3CCC4=CC(=O)CC[C@]4(C)[C@@]3(F)[C@@H](O)C[C@@]21C
inactive: dose: 12.5 mg/kg/injection, schedule: Q02DX009 (ip), vehicle: Klucel (hydroxypropylcellulose) (HPC) 92 % of control | dose: 25.0 mg/kg/injection, schedule: Q02DX009 (ip), vehicle: Klucel (hydroxypropylcellulose) (HPC) 100 % of control | dose: 50.0 mg/kg/injection, schedule: Q02DX009 (ip), vehicle: Klucel (hydroxypropylcellulose) (HPC) 120 % of control | dose: 100.0 mg/kg/injection, schedule: Q02DX009 (ip), vehicle: Klucel (hydroxypropylcellulose) (HPC) 107 % of control | dose: 200.0 mg/kg/injection, schedule: Q02DX009 (ip), vehicle: Klucel (hydroxypropylcellulose) (HPC) 99 % of control | dose: 400.0 mg/kg/injection, schedule: Q02DX009 (ip), vehicle: Klucel (hydroxypropylcellulose) (HPC) 92 % of control

O=C(CCCN1CC=C(n2c(=O)[nH]c3ccccc32)CC1)c1ccc(F)cc1
inactive: dose: 3.12 mg/kg/injection, schedule: Q01DX009 (ip), vehicle: Klucel (hydroxypropylcellulose) (HPC) 92 % of control | dose: 6.25 mg/kg/injection, schedule: Q01DX009 (ip), vehicle: Klucel (hydroxypropylcellulose) (HPC) 92 % of control and 95 % of control | [1] 98 % of control | dose: 25.0 mg/kg/injection, schedule: Q01DX009 (ip), vehicle: Klucel (hydroxypropylcellulose) (HPC) 90 % of control and 95 % of control | [2] 97 % of control | [3] 93 % of control | [4] 95 % of control

Cc1cc(O)ccc1[N+](=O)[O-]
inactive: [5] 119 % of control | [6] 123 % of control | [7] 104 % of control

O=C1c2ccccc2C(=O)c2c(NCCNCCNCCO)ccc(NCCNCCNCCO)c21
inactive: dose: 8.0 mg/kg/injection, schedule: Q01DX009 (ip), vehicle: acid diluted with saline 97 % of control | dose: 16.0 mg/kg/injection, schedule: Q01DX009 (ip), vehicle: acid diluted with saline 101 % of control | dose: 32.0 mg/kg/injection, schedule: Q01DX009 (ip), vehicle: acid diluted with saline 103 % of control | dose: 64.0 mg/kg/injection, schedule: Q01DX009 (ip), vehicle: acid diluted with saline 100 % of control | dose: 128.0 mg/kg/injection, schedule: Q01DX009 (ip), vehicle: acid diluted with saline 98 % of control

O=C(O)c1ccccc1C(=O)Nc1ccc([N+](=O)[O-])cc1Cl
inactive: [2] 93 % of control | [3] 100 % of control | [4] 96 % of control

CC(C)=CCNc1ncnc2c1ncn2C1OC(CO)C(O)C1O (stereo not drawn)
inactive: [8] 102 % of control | dose: 6.25 mg/kg/injection, schedule: Q01DX009 (ip), vehicle: saline 101 % of control | [9] 103 % of control | dose: 12.5 mg/kg/injection, schedule: Q01DX009 (ip), vehicle: saline 96 % of control | [10] 87 % of control and 107 % of control | [5] 103 % of control | [11] 87 % of control and 98 % of control | [6] 93 % of control | [12] 97 % of control | [7] 115 % of control

CCNCCC#N
inactive: dose: 80.0 mg/kg/injection, schedule: Q01DX009 (ip), vehicle: saline 113 % of control | dose: 160.0 mg/kg/injection, schedule: Q01DX009 (ip), vehicle: saline 119 % of control | dose: 320.0 mg/kg/injection, schedule: Q01DX009 (ip), vehicle: saline 105 % of control

O=C(/C=C/c1ccccc1)CC(O)(C(F)(F)F)C(F)(F)F
inactive: dose: 100.0 mg/kg/injection, schedule: Q04DX003 (sc), vehicle: olive oil, sesame oil, peanut oil 90 % of control | dose: 200.0 mg/kg/injection, schedule: Q04DX003 (sc), vehicle: olive oil, sesame oil, peanut oil 95 % of control | dose: 400.0 mg/kg/injection, schedule: Q04DX003 (sc), vehicle: olive oil, sesame oil, peanut oil 90 % of control

CCN(CC)CCCC(C)Nc1cc(/C=C/c2ccc(Cl)cc2)nc2cc(N(C)C)ccc12 (stereo not drawn)
inactive: [1] 97 % of control

Clc1ncnc2nc[nH]c12
inactive: dose: 50.0 mg/kg/injection, schedule: Q01DX009 (ip), vehicle: saline sonified 92 % of control | [11] 86 % of control | dose: 100.0 mg/kg/injection, schedule: Q01DX009 (ip), vehicle: saline sonified 97 % of control | [12] 97 % of control | dose: 200.0 mg/kg/injection, schedule: Q01DX009 (ip), vehicle: saline sonified 110 % of control

O=C(C(=O)c1cc(Br)ccc1O)c1cc(Br)ccc1O
inactive: [3] 96 % of control | [4] 106 % of control

O=C(Nc1ccccc1F)Nc1cccc2ccccc12
inactive: [3] 100 % of control | [4] 88 % of control | dose: 400.0 mg/kg/injection, schedule: Q01DX009 (ip), vehicle: Klucel (hydroxypropylcellulose) (HPC) 94 % of control

CCOC(=O)c1ccc(NCC#N)cc1
inactive: [12] 94 % of control | dose: 200.0 mg/kg/injection, schedule: Q01DX009 (ip), vehicle: saline with Tween-80 97 % of control | dose: 400.0 mg/kg/injection, schedule: Q01DX009 (ip), vehicle: saline with Tween-80 105 % of control

CCOC(=O)Nc1cccc2ccccc12
inactive: dose: 100.0 mg/kg/injection, schedule: Q04DX003 (ip), vehicle: Klucel (hydroxypropylcellulose) (HPC) 102 % of control | dose: 200.0 mg/kg/injection, schedule: Q04DX003 (ip), vehicle: Klucel (hydroxypropylcellulose) (HPC) 105 % of control | dose: 400.0 mg/kg/injection, schedule: Q04DX003 (ip), vehicle: Klucel (hydroxypropylcellulose) (HPC) 102 % of control

O=C1C(N2CC2)=C(N2CC2)C(=O)C(N2CC2)=C1N1CC1
inactive: dose: 10.0 micrograms/kg/injection, schedule: Q01DX009 (ip), vehicle: saline 100 % of control and 118 % of control | dose: 20.0 micrograms/kg/injection, schedule: Q01DX009 (ip), vehicle: saline 120 % of control

COC(=O)c1[nH]c(=O)[nH]c(=O)c1F
inactive: dose: 2.0 mg/kg/injection, schedule: Q01DX009 (ip), vehicle: saline with Tween-80 95 % of control | dose: 4.0 mg/kg/injection, schedule: Q01DX009 (ip), vehicle: saline with Tween-80 97 % of control | dose: 8.0 mg/kg/injection, schedule: Q01DX009 (ip), vehicle: saline with Tween-80 107 % of control

CCOC(=O)C(=Cc1ccc(C=C(C(=O)OCC)C(=O)OCC)cc1)C(=O)OCC
inactive: [2] 93 % of control | [4] 93 % of control

COCCOC(=O)CCCCC(=O)OCCOC
inactive: [7] 118 % of control | dose: 200.0 mg/kg/injection, schedule: Q01DX009 (ip), vehicle: saline 106 % of control | dose: 400.0 mg/kg/injection, schedule: Q01DX009 (ip), vehicle: saline 114 % of control

O=[N+]([O-])c1cccnc1Oc1cccc(C(F)(F)F)c1
inactive: dose: 135.0 mg/kg/injection, schedule: Q04DX003 (ip), vehicle: Klucel (hydroxypropylcellulose) (HPC) 110 % of control | dose: 195.0 mg/kg/injection, schedule: Q04DX003 (ip), vehicle: Klucel (hydroxypropylcellulose) (HPC) 115 % of control | dose: 450.0 mg/kg/injection, schedule: Q04DX003 (ip), vehicle: Klucel (hydroxypropylcellulose) (HPC) 100 % of control

CCOc1cc(N)ccc1C
inactive: [2] 93 % of control | [3] 93 % of control | [4] 95 % of control

CC(=O)OC(C)C1C2=C(C(=O)CC1(C)O)C(=O)c1c(ccc(-c3ccc4c(c3O)C(=O)C3=C(C4=O)C(C(C)OC(C)=O)C(C)(O)CC3=O)c1O)C2=O (stereo not drawn)
inactive: dose: 1.56 mg/kg/injection, schedule: Q01DX009 (ip), vehicle: saline with Tween-80 110 % of control | dose: 3.13 mg/kg/injection, schedule: Q01DX009 (ip), vehicle: saline with Tween-80 117 % of control | [8] 110 % of control

Cc1cccc(NC(=O)CCl)c1
inactive: dose: 50.0 mg/kg/injection, schedule: Q01DX009 (ip), vehicle: carboxymethylcellulose (CMC) 109 % of control | dose: 100.0 mg/kg/injection, schedule: Q01DX009 (ip), vehicle: carboxymethylcellulose (CMC) 101 % of control

CN1CCc2cc3c(c4c2C1C(O)c1ccccc1-4)OCO3 (stereo not drawn)
inactive: dose: 0.5 mg/kg/injection, schedule: Q01DX009 (ip), vehicle: acid diluted with saline 113 % of control | dose: 1.0 mg/kg/injection, schedule: Q01DX009 (ip), vehicle: acid diluted with saline 109 % of control | dose: 2.0 mg/kg/injection, schedule: Q01DX009 (ip), vehicle: acid diluted with saline 96 % of control | dose: 4.0 mg/kg/injection, schedule: Q01DX009 (ip), vehicle: acid diluted with saline 89 % of control

OC(CC(O)(C(F)(F)F)C(F)(F)F)CC(O)(C(F)(F)F)C(F)(F)F
inactive: [8] 114 % of control | dose: 6.25 mg/kg/injection, schedule: Q04DX003 (ip), vehicle: saline 92 % of control | [9] 97 % of control | dose: 12.5 mg/kg/injection, schedule: Q04DX003 (ip), vehicle: saline 97 % of control | [10] 108 % of control | dose: 25.0 mg/kg/injection, schedule: Q04DX003 (ip), vehicle: saline 105 % of control
